We go through one molecule from patent US20250295627A1 (Leibniz-Institut Fuer Neurobiologie, priority 2022, published 2025).

One series deals with CREB. The class given is in vivo, mouse. The following applies: for CREB shutoff in dorsal hippocampal CA1: 50 mg/kg daily oral, 6 weeks. The procedure: Animals were anesthetized with ketamine/xylazine (Medistar) and transcardially perfused with 0.9% saline followed by 4% PFA. The brains were post-fixed in 4% PFA in PBS overnight, followed by immersion in 0.5 M sucrose for 24 h and then 1M sucrose for another 1 to 2 days or until the brains were sunken down. The brains were snap-frozen and cut into 35 μm thick coronal cryosections (Leica CM3050S, Leica-Microsystems). The sections were blocked in a buffer (0.3% TX-100, 10% NGS in PBS) for 30 min at RT, and incubated with primary antibodies diluted in the blocking solution, overnight at 4° C. Secondary antibodies were applied for 2 h at RT. Sections were counterstained with DAPI and mounted in Mowiol 4-88 (Merck Chemicals). For the detection of Aβ, the heat-based antigen retrieval method was used. For anti-Aβ staining, following permeabilization, brain sections were immersed into […] sodium citrate solution (Fluka, pH=9) for 30 min at 80° C. Imaging of nuclear pCREB/CREB immunoreactivities in cryosections was performed using a Leica TCS SP5 system (Leica-Microsystems). Images were acquired sequentially with a HCX ApoL20×/1.0 water objective, optical zoom 4. Sections were imaged with constant laser/detector settings along the z-axis with 400 nm step in a 512×512 pixel format.
(§1) . For TBA2.1 mice (both sexes), treatment started at the age of 4 weeks. The animals were group housed and force fed for 4 weeks. […] Treatment in 5×FAD male mice started at the age of 12 weeks. Here, animals were single housed right away and given a choice between voluntary and forced feeding. […] During the course of the 7th week of treatment, animals were either subjected to perfusion to obtain their brains for subsequent immunohistochemistry or they were culled to obtained native brains for electrophysiological recordings.
All quantifications were done within the distal CA1 region of the hippocampus. Fiji/ImageJ software (Schindelin et al., 2012) was used to calculate maximum intensity projection from five optical sections for each channel. CREB and pCREB immunoreactivity of every single nucleus in a 100 μm stretch was measured in arbitrary units of pixel intensity. ROls were defined based on NeuN and DAPI. The neuronal loss was quantified based on NeuN staining (the number of neurons/CA1 length). For the quantification of microglia and astrocytes the number of cells based on overlaid DAPI and Iba-1 or GFAP signal was quantified within the rectangular ROI. Aβ plaques were counted in the region where the neuronal loss was quantified.

The format of series [1] is in vivo, mouse. The settings on record: 50 mg/kg daily oral, treated versus control animals.
From the text: as §1

A further series concerns TBA2.1 mice. As to the kind of experiment: Open-field test. The class given is in vivo, mouse.
From the text: as §1
Locomotor activity was assessed using the Open-field test, performed in a square arena (45×45×45 cm) made of black Plexiglas and dimly illuminated. The animals were placed in the center of the arena, and were left to explore it for 10 min. The sessions were video recorded, and the distance travelled in the maze as well as the speed was tracked with ANY-maze Software 7.0 (Stoelting Co). Data were analyzed in 1 min bins.

Series [2] has as its system TBA2.1 and 5×FAD mice. As to the kind of experiment: Acute hippocampal slices, CA1-LTP recordings. The class given is ex vivo, mouse. The settings on record: for basal synaptic transmission: bath application. As for the experimental part:
The 350 μm thick hippocampal slices were prepared according to a previously described protocol (Grochowska et al., 2017). Briefly, hippocampal slices were incubated in bubbling 95% 02, 5% CO2 ASCF solution for 2 h at 31+/−1° C. Field excitatory postsynaptic potentials (fEPSPs) were measured in stratum radiatum after stimulation of CA1 Schaffer collateral fibers with ACSF glass capillary microelectrodes (3-5 MΩ). fEPSPs were amplified by Extracellular Amplifier (EXT-02B, npi, Germany) and digitized at a sample frequency of 5 kHz by Digidata 1201 plus AD/Da converter (CED, UK). The strength of stimuli was adjusted to 25-35% of the maximum fEPSP slope values. Single stimuli were applied at 0.0333 Hz and averaged every 5 min. Stable baseline recordings were followed by tetanisation with 3×1 s stimulus trains at 100 Hz with a 10 min inter-train interval.
as §1

For series [3] the following is noted: estimated life-long consumption of turkey meat; cited from earlier work.
A further series relates to GluA1 AMPA-receptors. As to the kind of experiment: Synaptic surface expression of GluA1 AMPA-receptors in hippocampal neurons. It counts as cell-based, rat. The settings on record: 5 μM Nitarsone with 500 nM Aβ1-42, 48 h. As for the experimental part:
Hippocampal and cortical cultures were prepared from Wistar rat embryos (E18) of mixed sex as described previously (Spilker et al., 2016). Briefly, dissected were digested for 15 min with trypsin at 37° C. Neurons were plated on plastic 12-well dishes (Greiner) on glass coverslips coated with poly-L-lysine (Sigma-Aldrich) at a density of 60 000 cells/well in DMEM medium (Gibco, Thermo Fisher Scientific) supplemented with 10% FCS, 1× penicillin/streptomycin, and 2 mM glutamine. After 1 h incubation (at the 37° C., 5% CO2, 95% humidity) cells were kept in BrainPhys medium supplemented with 1% SM1 (Stemmcell Technologies), 0.5 mM Glutamine (Gibco) at 37° C., 5% CO2 and 95% humidity. […]
For quantitation of nuclear staining intensity (pCREB or CREB) somatic regions were sequentially scanned using the 63× objective (Leica) in both: Leica TCS SP8-STED and Leica TCS SP5 systems. […] Unprocessed images were analysed using Fiji/ImageJ software (Schindelin et al., 2012). For visualization of the quantified channel a fire look-up table (LUT) was used. Synaptic density was quantified in secondary dendrites using Fiji/ImageJ (Schindelin et al., 2012). […] Intensity of the GluA1 channel was measured in ROIs defined by a Shank3 mask as a readout for surface AMPAR expression.

Series [4] deals with TBA2.1 and 5×FAD mice. Put plainly: Amyloid load (amyloid-β positive puncta) in CA1 after oral Nitarsone. It counts as in vivo, mouse. The procedure:
Animals were anesthetized with ketamine/xylazine (Medistar) and transcardially perfused with 0.9% saline followed by 4% PFA. The brains were post-fixed in 4% PFA in PBS overnight, followed by immersion in 0.5 M sucrose for 24 h and then 1M sucrose for another 1 to 2 days or until the brains were sunken down. The brains were snap-frozen and cut into 35 μm thick coronal cryosections (Leica CM3050S, Leica-Microsystems). The sections were blocked in a buffer (0.3% TX-100, 10% NGS in PBS) for 30 min at RT, and incubated with primary antibodies diluted in the blocking solution, overnight at 4° C. Secondary antibodies were applied for 2 h at RT. Sections were counterstained with DAPI and mounted in Mowiol 4-88 (Merck Chemicals). For the detection of Aβ, the heat-based antigen retrieval method was used. […]
All quantifications were done within the distal CA1 region of the hippocampus. […] CREB and pCREB immunoreactivity of every single nucleus in a 100 μm stretch was measured in arbitrary units of pixel intensity. […] The neuronal loss was quantified based on NeuN staining (the number of neurons/CA1 length). For the quantification of microglia and astrocytes the number of cells based on overlaid DAPI and Iba-1 or GFAP signal was quantified within the rectangular ROI. Aβ plaques were counted in the region where the neuronal loss was quantified.

Like-named read-outs stand apart in the source and are kept apart here.

Consider `O=[N+]([O-])c1ccc([As](=O)(O)O)cc1` [Nitarsone, (4-nitrophenyl) arsonic acid], for which the “CREB shutoff in dorsal hippocampal CA1” value in the series on CREB (5×FAD mice) and with CREB (TBA2.1 mice) was “effectively prevented CREB shutoff” each time. For the same molecule, the “CREB immunoreactivity in NeuN positive cells in CA1” value with CREB (5×FAD mice, 18 weeks old) is reported as “rescues the reduction of CREB immunoreactivity”; in the series on CREB (TBA2.1 mice, 11 weeks old) it was “rescues the reduction of CREB immunoreactivity”. The body weight entry in series [1] is given as “no effect on the body weight”. In addition, the preference index entry in the series with TBA2.1 mice (FIG. 11 panel L, TBA2.1 mice) is given as “does not influence preference index”; in the series with TBA2.1 mice (FIG. 11 panel N, printed TBA2.1 mice) it was “does not influence preference index”. Besides, the “distance travelled during open field arena exploration” value in the series on TBA2.1 mice (FIG. 11 panel M, TBA2.1 mice) is “slightly normalizes increased distance travelled”; in the series with TBA2.1 mice (FIG. 11 panel O, printed TBA2.1 mice) it was “slightly normalizes increased distance travelled”. Also, the basal synaptic transmission entry is listed as “not affected” with TBA2.1 and 5×FAD mice [2] (5×FAD mice); “not affected” with TBA2.1 and 5×FAD mice [2] (TBA2.1 mice). The “late-phase LTP, fEPSP slope in the last 30 minutes of recordings” value with TBA2.1 and 5×FAD mice [2] (slices of Nitarsone-fed 5×FAD mice, postnatal week 19) is given as “rescued”; in the series with TBA2.1 and 5×FAD mice [2] (slices of Nitarsone-fed TBA2.1 mice, postnatal week 11) it was “rescued”. Moreover, in series [3], the “increased lifetime risk of developing cancer” value was 0.00031%. Also, the “downscaling of synaptic surface expression of GluA1 AMPA-receptors” value in the series with GluA1 AMPA-receptors is “significantly attenuated”. Moreover, the amyloid load entry in the series on TBA2.1 and 5×FAD mice [4] (5×FAD mice) is “did not detect any effects”; in the series on TBA2.1 and 5×FAD mice [4] (TBA2.1 mice), “did not detect any effects”.
